Experimental data published in patent US20110230430A1, “SAPONIN EXTRACT FROM SAPONARIA SPP. AND USES THEREOF” (NATIONAL RESEARCH COUNCIL OF CANADA, priority 2008, published 2011).

What was measured:
[1] = Haemolytic properties of selected saponins; details: saponins purified to more than 75%
Text: The haemolytic properties of the various saponins that have been purified to more than 75% have been examined and are provided in Table 39. Haemolytic properties are not directly related to anti-cancer or apoptosis inducing properties of saponins but may be related to toxicity and utility of the saponins for preparation of injectable formulations. Saponins most suitable for injectable formulation will be less haemolytic. QS21, a purified Quillaja saponaria saponin with known haemolytic activity is used as reference.

[2] = tested on: PC-3, MDA-MB-231, WiDr, and HT-29 Cells; experiment: Order of apoptosis potency across cancer cell lines; set-up: species or system human; details: rank based on responses observed in PC-3, MDA-MB-231, WiDr, and HT-29 Cells; 1 = most active
CRL-2522 cells = experiment: Dual Sensor: MitoCasp Assay in CRL-2522 normal fibroblast cells; assay type: cell-based, human
Text: (§1) Techniques to assay enzymatic and signaling processes involved in apoptosis have been developed as standard protocols. One example of an early step in apoptosis, is the release of cytochrome C from mitochondria and the activation of caspase-3. Induction of the caspases (a series of cytosolic proteases) is one of the most consistently observed features of apoptosis. Caspases are a family of proteolytic enzymes that transmit the apoptotic signal using a proteolytic cascade. […] Caspases 3 and 7 are effector caspases, central to the caspase cascade pathways. In particular, caspase-3 plays a central role in the process. When caspases are activated, they cleave target proteins; one of the most important of these is poly-(ADP-ribose) polymerase (PARP), which is a protein located in the nucleus. Therefore, assays detecting release of cytochrome C, detecting caspase-3 activity and detecting PARP degradation are effective determinants of apoptosis. The loss of mitochondrial membrane potential is known to occur during apoptosis. To analyze mitochondrial membrane potential, a cationic dye may be used which accumulates in the mitochondria of healthy cells. Collapse of the mitochondrial membrane potential during apoptosis prevents the dye from accumulating in the mitochondria resulting in a decrease in fluorescent intensity that can be detected with flow cytometry. Dual Sensor: MitoCasp™ (Cell Technology) used herein in the Examples is an assay that measures caspase 3/7 activity and cells with decreased mitochondrial membrane potential. In this assay, caspase 3/7 activity is detected using a cell permeable carboxyfluorescein labeled caspase inhibitor, which binds covalently to active caspases 3 and 7. Cells that contain bound inhibitor are detected by an increase in fluorescence when samples are analyzed by flow cytometry.
(§2) Following centrifugation at 500×g for 5 min, cell pellets were resuspended in PBS at 3.3×10^6 cells/mL. 300 μL cell suspension was mixed with 10 μL each of 30X Mitochondria Membrane Potential Dye and 30X Caspase 3/7 detection reagent. Following incubation for 60 min under normal growth conditions, cells were washed twice with 1× wash buffer and resuspended in 0.5 mL 1× wash buffer. Samples were analyzed by flow cytometry measuring the fluorescence emissions from 515 nm to 530 nm for caspase detection, and 574 nm to 600 nm for mitochondrial membrane potential detection.
CRL-2522 cells, acquired from ATCC, (American Type Culture Collection) are normal fibroblast cells that originated from human foreskin. CRL-2522 cells were maintained in RPMI 1640 medium (Gibco) supplemented with 10% fetal bovine serum (Cansera), 100 U/mL penicillin, 100 μg/mL streptomycin and 0.25 μg/mL amphotericin B. Cultures were maintained in medium at 37° C. with 5% CO2 and 100% relative humidity. […]

HT-29 cancer cells = experiment: Dual Sensor: MitoCasp Assay in HT-29 colon cancer cells; assay type: cell-based, human; details: HT-29 cells, 2.5 μM, 24 hours
Text: as §1, with “To analyze mitochondrial membrane potential, a cationic dye may be used which accumulates in the mitochondria of healthy cells.” left out, “Dual Sensor: MitoCasp™ (Cell Technology) used herein in the Examples is an assay that measures caspase 3/7 activity and cells with decreased mitochondrial membrane potential.” left out
Following PC1448 treatment, adherent and non-adherent cells were harvested and washed with cold PBS. […] Samples were analyzed by flow cytometry measuring the fluorescence emissions from 515 nm to 530 nm for caspase detection, and 574 nm to 600 nm for mitochondrial membrane potential detection. […]
HT-29 cancer cells were treated with 2.5 μM, 5.0 μM and 10 μM of PC1526 or PC1448 for 23 hours, or with 2.5 μM, 5.0 μM and 10 μM PC1422 for 24 hours and assessed using the Dual Sensor: MitoCasp™ Assay. […]

MCF-7 cells = experiment: Dual Sensor: MitoCasp Assay in MCF-7 breast cancer cells; assay type: cell-based, human; details: 5 and 10 μM, 24 hours
Text: Techniques to assay enzymatic and signaling processes involved in apoptosis have been developed as standard protocols. One example of an early step in apoptosis, is the release of cytochrome C from mitochondria and the activation of caspase-3. Induction of the caspases (a series of cytosolic proteases) is one of the most consistently observed features of apoptosis. Caspases are a family of proteolytic enzymes that transmit the apoptotic signal using a proteolytic cascade. […] Caspases 3 and 7 are effector caspases, central to the caspase cascade pathways. In particular, caspase-3 plays a central role in the process. […] Collapse of the mitochondrial membrane potential during apoptosis prevents the dye from accumulating in the mitochondria resulting in a decrease in fluorescent intensity that can be detected with flow cytometry. […] In this assay, caspase 3/7 activity is detected using a cell permeable carboxyfluorescein labeled caspase inhibitor, which binds covalently to active caspases 3 and 7. Cells that contain bound inhibitor are detected by an increase in fluorescence when samples are analyzed by flow cytometry. […]
MCF-7 cells were treated with 5.0 μM and 10 μM of saponins PC1526, PC1464 and PC1422 for 24 hours and assessed using Dual Sensor: MitoCasp™ Assay.

MDA-MB-231 cells = experiment: Dual Sensor: MitoCasp Assay in MDA-MB-231 breast cancer cells; assay type: cell-based, human
Text: as §1, §2
The MDA-MB-231 cell line (ATCC #HTB-26) was derived from the pleural effusion of a patient with a breast adenocarcinoma (Cailleau et al., 1974). The cells were maintained in RPMI 1640 (Gibco) supplemented with 10% fetal bovine serum (Camera), 100 U/mL penicillin, 100 μg/mL streptomycin and 0.25 μg/mL amphotericin B. Cultures were maintained in medium at 37° C. with 5% CO2 and 100% relative humidity. […]

PC-3 cells = experiment: Dual Sensor: MitoCasp Assay in PC-3 prostate cancer cells; assay type: cell-based, human
Text: as §1
PC-3 cells (ATCC #CRL-1435) were derived from a prostate adenocarcinoma (Kaighn et al., 1979). They were maintained in RPMI 1640 medium (Gibco) supplemented with 10% fetal bovine serum (Cansera), 100 U/mL penicillin, and 100 μg/mL streptomycin and 0.25 μg/mL amphotericin B. Cultures were maintained in medium at 37° C. with 5% CO2 and 100% relative humidity.
To harvest adherent cells, the existing medium was removed and cells were dissociated with 0.25% (w/v) trypsin-EDTA·4Na in Hank's Balanced Salt Solution (Gibco). To block the proteolytic action of the trypsin, the cells were resuspended in an excess of media containing fetal bovine serum. Cells were transferred to a 15 mL conical centrifuge tube and pelleted by centrifugation at 500×g for 5 min. Cell pellets were resuspended in media, and an aliquot of the cells were seeded into a new flask.
PC-3 cells were seeded in tissue culture flasks with regular growth medium and maintained under normal conditions. […] Following incubation under normal growth conditions for the specified time, cells were washed once with cold phosphate-buffered saline (PBS) (137 mM NaCl, 2.7 mM KCl, 4.3 mM Na2HPO4.7H2O, 1.4 mM KH2PO4) and harvested as previously described. Assays were carried out according to instructions given in kits. All Flow Cytometry was performed using a Coulter Epics XL (Beckman).
as §2

[3] = CRL-2522 cells, 2.5 μM PC1422, 36 hr
[4] = CRL-2522 cells, 5.0 μM PC1422, 36 hr
[5] = CRL-2522 cells, 10.0 μM PC1422, 36 hr
[6] = CRL-2522 cells, 15.0 μM PC1422, 36 hr
[7] = 5.0 μM saponin, 36 hours (comparison of saponins)
[8] = CRL-2522 cells, 2.5 μM PC1380, 32 hr
[9] = CRL-2522 cells, 5.0 μM PC1380, 32 hr
[10] = CRL-2522 cells, 10.0 μM PC1380, 32 hr
[11] = CRL-2522 cells, 15.0 μM PC1380, 32 hr

## Vaccaroside E [PC1422]
[1]
  HD50: 43.8 µM
[2]
  Order of Apoptosis Potency: 4
CRL-2522 cells; [3]
  Cells with caspase 3/7 activity: 3.1%
  Cells with decreased mitochondrial membrane potential: 3.4%
CRL-2522 cells; [4]
  Cells with caspase 3/7 activity: 15.3%
  Cells with decreased mitochondrial membrane potential: 5.1%
CRL-2522 cells; [5]
  Cells with caspase 3/7 activity: 12.8%
  Cells with decreased mitochondrial membrane potential: 19.2%
CRL-2522 cells; [6]
  Cells with caspase 3/7 activity: 7.3%
  Cells with decreased mitochondrial membrane potential: 26.2%
CRL-2522 cells; CRL-2522 cells, PC1422 15.0-2.5 μM, 36 hours
  Cells with Caspase 3/7 activity and decreased mitochondrial membrane potential vs untreated (in words): modest increase
CRL-2522 cells; fibroblast cell line CRL-2522, summary of the Examples
  Apoptosis in non-cancerous cell line (summary in words): no or little apoptosis
HT-29 cancer cells; 5.0 μM and 10 μM
  Caspase 3/7 activity compared to untreated cells / induction of apoptosis (in words, FIG. 5): increase in caspase 3/7 activity
MCF-7 cells
  Induction of apoptosis (in words, FIG. 16): do not induce apoptosis
MDA-MB-231 cells; 2.5 μM PC1422, 36 hr
  Cells with caspase 3/7 activity: 21.1%
  Cells with decreased mitochondrial membrane potential: 13.7%
MDA-MB-231 cells; 5.0 μM PC1422, 36 hr
  Cells with caspase 3/7 activity: 32.2%
  Cells with decreased mitochondrial membrane potential: 32.9%
MDA-MB-231 cells; [7]
  Cells with caspase 3/7 activity: 41.2%
  Cells with decreased mitochondrial membrane potential: 21.7%
MDA-MB-231 cells; 10.0 μM PC1422, 36 hr
  Cells with caspase 3/7 activity: 41.6%
  Cells with decreased mitochondrial membrane potential: 46.0%
MDA-MB-231 cells; 15.0 μM PC1422, 36 hr
  Cells with caspase 3/7 activity: 26.7%
  Cells with decreased mitochondrial membrane potential: 65.2%
MDA-MB-231 cells; 36 hours
  Concentration of greatest effect on apoptosis: 15 µM
  Induction of apoptosis at concentrations as low as: 2.5 µM
PC-3 cells; 2.5 μM PC1422, 36 hr
  Cells with caspase 3/7 activity: 42.2%
  Cells with decreased mitochondrial membrane potential: 23.6%
PC-3 cells; 5.0 μM PC1422, 36 hr
  Cells with caspase 3/7 activity: 49.1%
  Cells with decreased mitochondrial membrane potential: 30.0%
PC-3 cells; 10.0 μM PC1422, 36 hr
  Cells with caspase 3/7 activity: 55.7%
  Cells with decreased mitochondrial membrane potential: 53.7%
PC-3 cells; 15.0 μM PC1422, 36 hr
  Cells with caspase 3/7 activity: 57.1%
  Cells with decreased mitochondrial membrane potential: 53.3%
PC-3 cells; 36 hours
  Concentration of greatest effect on apoptosis: above 10 μM
  Induction of apoptosis at concentrations as low as: 2.5 µM

## CC1OC(OC(=O)C23CCC(C)(C)CC2C2=CCC4C5(C)CCC(OC6OC(C(=O)O)C(O)C(O)C6OC6OC(CO)C(O)C(O)C6O)C(C)(C=O)C5CCC4(C)C2(C)CC3O)C(OC2OC(C)C(OC3OCC(O)C(O)C3O)C(O)C2O)C(OC2OC(CO)C(O)C2O)C1O (centres unmarked) [PC1380]
CRL-2522 cells; [8]
  Cells with caspase 3/7 activity: 0.4%
  Cells with decreased mitochondrial membrane potential: 1.8%
CRL-2522 cells; [9]
  Cells with caspase 3/7 activity: 1.0%
  Cells with decreased mitochondrial membrane potential: 4.0%
CRL-2522 cells; [10]
  Cells with caspase 3/7 activity: 1.2%
  Cells with decreased mitochondrial membrane potential: 2.6%
CRL-2522 cells; [11]
  Cells with caspase 3/7 activity: 0.9%
  Cells with decreased mitochondrial membrane potential: 4.5%
CRL-2522 cells; CRL-2522 cells, PC1380 15.0-2.5 μM, 32 hours
  Apoptosis (in words): no significant apoptosis
HT-29 cancer cells; 5.0 μM, 10 μM and 15 μM
  Induction of apoptosis (in words, FIG. 6): does not induce apoptosis
MDA-MB-231 cells; 2.5 μM PC1380, 34 hr
  Cells with caspase 3/7 activity: 6.2%
  Cells with decreased mitochondrial membrane potential: 3.2%
MDA-MB-231 cells; 5.0 μM PC1380, 34 hr
  Cells with caspase 3/7 activity: 8.0%
  Cells with decreased mitochondrial membrane potential: 4.7%
MDA-MB-231 cells; 10.0 μM PC1380, 34 hr
  Cells with caspase 3/7 activity: 9.4%
  Cells with decreased mitochondrial membrane potential: 6.6%
MDA-MB-231 cells; 15.0 μM PC1380, 34 hr
  Cells with caspase 3/7 activity: 7.9%
  Cells with decreased mitochondrial membrane potential: 4.3%
MDA-MB-231 cells; PC1380 15.0-2.5 μM, 34 hours
  Apoptosis activity (in words): no significant apoptosis activity
PC-3 cells; 2.5 μM PC1380, 35 hr
  Cells with caspase 3/7 activity: 11.4%
  Cells with decreased mitochondrial membrane potential: 5.8%
PC-3 cells; 5.0 μM PC1380, 35 hr
  Cells with caspase 3/7 activity: 15.3%
  Cells with decreased mitochondrial membrane potential: 7.1%
PC-3 cells; 10.0 μM PC1380, 35 hr
  Cells with caspase 3/7 activity: 14.9%
  Cells with decreased mitochondrial membrane potential: 8.7%
PC-3 cells; 15.0 μM PC1380, 35 hr
  Cells with caspase 3/7 activity: 31.8%
  Cells with decreased mitochondrial membrane potential: 15.9%
PC-3 cells; PC1380 15.0-2.5 μM, 35 hours
  Cells with Caspase 3/7 activity and decreased mitochondrial membrane potential vs untreated (in words): small increase

## QS21 [reference compound]
[1]
  HD50: 7.5 µM
